Assays:
[1] = Aqueous solubility of the compound; format: physicochemical; conditions: buffer
[2] = Growth inhibition of human HOP92 cells measured after 48 hrs by sulforhodamine B assay; format: functional; conditions: HOP-92, 48 h
[3] = Growth inhibition of human HOP62 cells measured after 48 hrs by sulforhodamine B assay; format: functional; conditions: HOP-62, 48 h
[4] = Growth inhibition of human NCI-H322M cells measured after 48 hrs by sulforhodamine B assay; format: functional
[5] = Growth inhibition of human EKVX cells measured after 48 hrs by sulforhodamine B assay; format: functional
[6] = Antiproliferative activity against human A549/ATCC cells assessed as cell growth at 10 uM measured after 48 hrs by sulforhodamine B assay relative to control; format: functional; conditions: A549, 48 h, read-out: Activity
[7] = Antiproliferative activity against human A549 cells assessed as reduction in cell viability measured after 72 hrs by MTT assay; format: functional, cell-based; conditions: A549, 72 h
[8] = Antiproliferative activity against human NCI-H23 cells assessed as cell growth at 10 uM measured after 48 hrs by sulforhodamine B assay relative to control; format: functional; conditions: NCI-H23, 48 h, read-out: Activity
[9] = Antiproliferative activity against human NCI-H460 cells assessed as reduction in cell viability measured after 72 hrs by MTT assay; format: functional, cell-based; conditions: NCI-H460, 72 h
[10] = Antiproliferative activity against human NCI-H460 cells assessed as cell growth at 10 uM measured after 48 hrs by sulforhodamine B assay relative to control; format: functional; conditions: NCI-H460, 48 h, read-out: Activity
[11] = Growth inhibition of human NCI-H226 cells measured after 48 hrs by sulforhodamine B assay; format: functional; conditions: NCI-H226, 48 h
[12] = Antiproliferative activity against human EKVX cells assessed as cell growth at 10 uM measured after 48 hrs by sulforhodamine B assay relative to control; format: functional; conditions: read-out: Activity
[13] = Antiproliferative activity against human NCI-H322M cells assessed as cell growth at 10 uM measured after 48 hrs by sulforhodamine B assay relative to control; format: functional; conditions: read-out: Activity
[14] = Antiproliferative activity against human NCI-H522 cells assessed as cell growth at 10 uM measured after 48 hrs by sulforhodamine B assay relative to control; format: functional; conditions: NCI-H522, 48 h, read-out: Activity
[15] = Antiproliferative activity against human HCC827 cells assessed as reduction in cell viability measured after 72 hrs by MTT assay; format: functional, cell-based; conditions: HCC827, 72 h
[16] = Antiproliferative activity against human NCI-H1975 cells assessed as reduction in cell viability measured after 72 hrs by MTT assay; format: functional, cell-based; conditions: NCI-H1975, 72 h
[17] = Growth inhibition of human NCI-H23 cells measured after 48 hrs by sulforhodamine B assay; format: functional; conditions: NCI-H23, 48 h
[18] = Antiproliferative activity against human NCI-H226 cells assessed as cell growth at 10 uM measured after 48 hrs by sulforhodamine B assay relative to control; format: functional; conditions: NCI-H226, 48 h, read-out: Activity
[19] = Growth inhibition of human NCI-H522 cells measured after 48 hrs by sulforhodamine B assay; format: functional; conditions: NCI-H522, 48 h
[20] = Antiproliferative activity against human HOP62 cells assessed as cell growth at 10 uM measured after 48 hrs by sulforhodamine B assay relative to control; format: functional; conditions: HOP-62, 48 h, read-out: Activity
[21] = Antiproliferative activity against human HOP92 cells assessed as cell growth at 10 uM measured after 48 hrs by sulforhodamine B assay relative to control; format: functional; conditions: HOP-92, 48 h, read-out: Activity
[22] = read-out: LC50 (the source's name)

**Q.** For Cc1n(Cc2ccc3ccccc3n2)cc[n+]1Cc1ccc2ccccc2c1.[Br-], which solubility [1] is on record?
**A.** < 5 mM

**Q.** And the GI50 [2]?
**A.** 0.518 µM

**Q.** And the TGI [2]?
**A.** 3.81 µM

**Q.** And the CC50 [2, 22]?
**A.** 27 µM

**Q.** What about the GI50 [3] of the same compound?
**A.** 1.53 µM

**Q.** And the TGI [3]?
**A.** 6.66 µM

**Q.** And the CC50 [3, 22]?
**A.** 34.5 µM

**Q.** What about the GI50 [4] of the same compound?
**A.** 3.27 µM

**Q.** And the TGI [4]?
**A.** 14.7 µM

**Q.** And the CC50 [4, 22]?
**A.** 40.4 µM

**Q.** And the GI50 [5]?
**A.** 3.93 µM

**Q.** And the TGI [5]?
**A.** 27.6 µM

**Q.** What about the CC50 [5, 22] of the same compound?
**A.** > 100 µM

**Q.** What about the growth at 10 µM [6] of the same compound?
**A.** 33.5%

**Q.** And the GI50 [7]?
**A.** 1.31 µM

**Q.** And the IC50 [7]?
**A.** 3 µM

**Q.** And the LC50 [7]?
**A.** 43.5 µM

**Q.** And the TGI [7]?
**A.** 13.1 µM

**Q.** What about the growth at 10 µM [8] of the same compound?
**A.** 2.01%

**Q.** What about the GI50 [9] of the same compound?
**A.** 0.959 µM

**Q.** What about the IC50 [9] of the same compound?
**A.** 2 µM

**Q.** And the TGI [9]?
**A.** 14.4 µM

**Q.** And the CC50 [9, 22]?
**A.** 47 µM

**Q.** And the growth at 10 µM [10]?
**A.** 10.2%

**Q.** And the GI50 [11]?
**A.** 1.86 µM

**Q.** And the TGI [11]?
**A.** 10.9 µM

**Q.** And the CC50 [11, 22]?
**A.** 47.5 µM

**Q.** What about the growth at 10 µM [12] of the same compound?
**A.** 48.3%

**Q.** And the growth at 10 µM [13]?
**A.** 26%

**Q.** And the growth at 10 µM [14]?
**A.** 3.95%

**Q.** And the IC50 [15]?
**A.** 9 µM

**Q.** What about the IC50 [16] of the same compound?
**A.** < 1 µM

**Q.** And the GI50 [17]?
**A.** 1.83 µM

**Q.** And the TGI [17]?
**A.** 13.4 µM

**Q.** And the CC50 [17, 22]?
**A.** 62 µM

**Q.** And the growth at 10 µM [18]?
**A.** 12.7%

**Q.** What about the GI50 [19] of the same compound?
**A.** 0.271 µM

**Q.** What about the LC50 (50% lethal concentration) [19] of the same compound?
**A.** 12.4 µM

**Q.** What about the TGI [19] of the same compound?
**A.** 1.46 µM

**Q.** And the growth at 10 µM [20]?
**A.** 13.3%

**Q.** And the growth at 10 µM [21]?
**A.** -6.1%
